The nature of this series: activity coefficient (dimensionless); of the first substance listed, at infinite dilution; xn = mol fraction of the nth substance listed. As to conditions: Liquid, Chromatography, x1 = 0.

From the NIST ThermoML archive (doi:10.1016/j.fluid.2014.11.020) come the findings set out here.

The structures appear in SMILES notation. ± gives the expanded uncertainty stated by the source.

With `Cc1ccccc1` [toluene] + CCCCCCCCn1cc[n+](COCCCOC[n+]2ccn(CCCCCCCC)c2C)c1C.N#C[N-]C#N.N#C[N-]C#N, the activity coefficient is 0.94 ± 0.06 (323.15 K), 0.95 ± 0.06 (333.15 K) and 0.97 ± 0.06 (343.15 K).
With `C#CCCCCC` [1-heptyne] + CCCOC[n+]1ccc(N(C)C)cc1.O=S(=O)([N-]S(=O)(=O)C(F)(F)F)C(F)(F)F, the activity coefficient (323.15 K) is 3.33 ± 0.23, the activity coefficient (333.15 K) was 3.35 ± 0.23 and the activity coefficient (343.15 K) turned out to be 3.34 ± 0.23.
For the compound `c1ccccc1` [benzene] + CCCOC[n+]1ccn(Cc2ccccc2)c1.N#C[N-]C#N, the activity coefficient runs as follows: (323.15 K) 1.51 ± 0.1; (333.15 K) 1.5 ± 0.1; (343.15 K) 1.5 ± 0.1.
For `CC#N` [acetonitrile] + CCCCCCCCn1cc[n+](COCCC)c1C.N#C[N-]C#N, the activity coefficient runs as follows: (323.15 K) 0.72 ± 0.05; (333.15 K) 0.7 ± 0.05; (343.15 K) 0.69 ± 0.05.
For `CC1CCCC1` [methylcyclopentane] + CCCOC[n+]1ccc(N(C)C)cc1.O=S(=O)([N-]S(=O)(=O)C(F)(F)F)C(F)(F)F, the activity coefficient was 7.35 ± 0.5 (323.15 K), 7.22 ± 0.49 (333.15 K) and 6.1 ± 0.42 (343.15 K).
As to `CC#N` [acetonitrile] + N#C[N-]C#N.N#C[N-]C#N.c1ccc(Cn2cc[n+](COCCCOC[n+]3ccn(Cc4ccccc4)c3)c2)cc1, the activity coefficient reads like this: (323.15 K) 0.99 ± 0.06; (333.15 K) 0.97 ± 0.06; (343.15 K) 0.98 ± 0.06.
On to `CC1CCCCC1` [methylcyclohexane] + CCCOC[n+]1ccc(N(C)C)cc1.O=S(=O)([N-]S(=O)(=O)C(F)(F)F)C(F)(F)F, for which the activity coefficient by setting is: (323.15 K) 9.3 ± 0.63; (333.15 K) 8.99 ± 0.61; (343.15 K) 7.79 ± 0.53.
For the compound `CCCCCCC` [heptane] + CCCOC[n+]1ccn(Cc2ccccc2)c1.N#C[N-]C#N, the activity coefficient (323.15 K) is 48 ± 3.3, the activity coefficient (333.15 K) came out at 44.9 ± 3.1 and the activity coefficient (343.15 K) came out at 41.8 ± 2.9.
With `CO` [methanol] + CCCCCCCCn1cc[n+](COCCCOC[n+]2ccn(CCCCCCCC)c2C)c1C.N#C[N-]C#N.N#C[N-]C#N, the activity coefficient is, setting by setting: (323.15 K) 0.2 ± 0.03; (333.15 K) 0.2 ± 0.03; (343.15 K) 0.21 ± 0.03.
Regarding `ClC(Cl)Cl` [trichloromethane] + CCCCCCCCn1cc[n+](COCCC)c1C.N#C[N-]C#N, the activity coefficient stood at 0.27 ± 0.03 (323.15 K), 0.3 ± 0.03 (333.15 K) and 0.33 ± 0.03 (343.15 K).
On to `CCCC(C)=O` [pentan-2-one] + CN(C)c1cc[n+](COCCCOC[n+]2ccc(N(C)C)cc2)cc1.O=S(=O)([N-]S(=O)(=O)C(F)(F)F)C(F)(F)F.O=S(=O)([N-]S(=O)(=O)C(F)(F)F)C(F)(F)F, for which the activity coefficient runs as follows: (323.15 K) 0.69 ± 0.05; (333.15 K) 0.7 ± 0.05; (343.15 K) 0.71 ± 0.05.
On to `CC1CCCCC1` [methylcyclohexane] + CCCOC[n+]1ccn(Cc2ccccc2)c1.N#C[N-]C#N, for which the activity coefficient reads like this: (323.15 K) 21.3 ± 1.5; (333.15 K) 20.4 ± 1.4; (343.15 K) 18.2 ± 1.2.
Consider `CCC[N+](=O)[O-]` [1-nitropropane] + CCCOC[n+]1ccn(C)c1.F[B-](F)(F)F, for which the activity coefficient runs as follows: (323.15 K) 1.78 ± 0.12; (333.15 K) 1.78 ± 0.12; (343.15 K) 1.78 ± 0.12.
For the compound `CCCCCCCC` [octane] + CCCCCCCCn1cc[n+](COCCCOC[n+]2ccn(CCCCCCCC)c2C)c1C.O=S(=O)([N-]S(=O)(=O)C(F)(F)F)C(F)(F)F.O=S(=O)([N-]S(=O)(=O)C(F)(F)F)C(F)(F)F, the activity coefficient came to 5.97 ± 0.41 (323.15 K), 5.45 ± 0.37 (333.15 K) and 5.08 ± 0.35 (343.15 K).
On to `CC(C)O` [propan-2-ol] + CCCOC[n+]1ccn(Cc2ccccc2)c1.N#C[N-]C#N, for which the activity coefficient is 0.85 ± 0.05 (323.15 K), 0.84 ± 0.05 (333.15 K) and 0.82 ± 0.05 (343.15 K).
